Experimental data as given in patent publication US20220194935A1, “PHENETHYL SUBSTITUTED IMIDAZO[4,5-C]QUINOLINE COMPOUNDS WITH AN N-1 BRANCHED GROUP” (3M INNOVATIVE PROPERTIES COMPANY, priority 2019, published 2022).

Tests used:
human TLR8 = target: T1, human TLR8 (Homo sapiens, UniProt Q9NR97); assay: TLR Activation and Specificity, HEK-BLUE-hTLR8 SEAP reporter cells; assay type: cell-based; details: 16-20 hours, at least 2× vehicle control, tested 0.01-30 micromolar
T1 construct: host or cells: HEK293 (HEK-BLUE-hTLR8)
T1 sequence (Q9NR97 27-1041): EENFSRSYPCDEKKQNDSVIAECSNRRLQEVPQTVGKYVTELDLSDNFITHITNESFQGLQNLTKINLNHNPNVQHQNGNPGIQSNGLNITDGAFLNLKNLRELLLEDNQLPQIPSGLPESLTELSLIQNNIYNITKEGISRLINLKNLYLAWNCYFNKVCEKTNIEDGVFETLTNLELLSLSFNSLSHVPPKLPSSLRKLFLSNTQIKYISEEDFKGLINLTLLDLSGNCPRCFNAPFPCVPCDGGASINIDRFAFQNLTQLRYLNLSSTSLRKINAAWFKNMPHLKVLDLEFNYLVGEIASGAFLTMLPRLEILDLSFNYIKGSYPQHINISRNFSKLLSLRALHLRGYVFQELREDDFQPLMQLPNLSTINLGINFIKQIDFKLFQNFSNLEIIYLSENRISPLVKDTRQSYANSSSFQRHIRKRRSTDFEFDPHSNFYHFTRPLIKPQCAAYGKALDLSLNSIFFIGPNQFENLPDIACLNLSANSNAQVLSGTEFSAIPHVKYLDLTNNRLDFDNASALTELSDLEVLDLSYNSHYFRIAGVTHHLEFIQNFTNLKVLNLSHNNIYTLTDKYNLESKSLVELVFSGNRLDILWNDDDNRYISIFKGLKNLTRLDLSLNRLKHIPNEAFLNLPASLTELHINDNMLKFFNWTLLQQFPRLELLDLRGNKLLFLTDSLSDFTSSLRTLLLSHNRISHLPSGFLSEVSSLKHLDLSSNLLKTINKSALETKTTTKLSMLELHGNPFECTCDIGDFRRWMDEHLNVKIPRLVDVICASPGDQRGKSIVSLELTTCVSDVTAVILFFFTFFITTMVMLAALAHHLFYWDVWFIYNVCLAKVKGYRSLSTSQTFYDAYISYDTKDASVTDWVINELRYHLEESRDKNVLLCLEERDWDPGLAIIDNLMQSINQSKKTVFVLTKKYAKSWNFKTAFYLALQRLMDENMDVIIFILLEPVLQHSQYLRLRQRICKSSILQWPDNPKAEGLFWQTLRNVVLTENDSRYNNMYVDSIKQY
Experimental: (§1) HEK-BLUE-hTLR7 or hTLR8 reporter cells were obtained from InvivoGen, San Diego, Calif. According to the manufacturer's description, these reporter cells were prepared by co-transfection of HEK293 cells with an inducible secreted embryonic alkaline phosphatase (SEAP) reporter gene and either the human TLR7 or TLR8 gene. The SEAP reporter gene was placed under the control of an IFN-β minimal promoter fused to five NF-κB and AP-1-binding sites. In the presence of a TLR ligand, activation of NF-κB and AP-1 occurs, resulting in a corresponding increase in SEAP levels.
(§2) In the assay, the HEK cells were grown and maintained using standard cell culture techniques in a growth medium that contained Dulbecco's Modified Eagle Medium (ThermoFisher Scientific Incorporated, Waltham, Mass.) supplemented with 1% penicillin/streptomycin and 10% heat-inactivated Gibco fetal bovine serum (ThermoFisher Scientific). Each compound was solubilized in DMSO to create a 3 millimole (mM) stock solution. The stock solution was then further diluted with the growth medium to prepare serial dilutions. Each test compound was tested at a concentration of 30, 10, 3.3, 1.1, 0.37, 0.12, 0.04, and 0.01 micromolar using a 96-well format with 5×10^4 cells and 200 microliters of growth medium per well.
(§3) For each compound, hTLR7, hTLR8, and their respective null control HEK cells were screened. DMSO serially diluted into the growth medium served as the vehicle control. Cell culture supernatants containing the SEAP reporter were collected after an incubation period of 16-20 hours in a cell culture incubator (37° C. and 5% CO2), and either analyzed immediately or stored at −80° C. SEAP levels were measured using the colorimetric enzyme assay (QUANTI-BLUE (InvivoGen) according to manufacturer's instructions.
(§4) Specifically, the minimum effective concentration of each compound (micromolar) was determined as the lowest concentration of the compound that produced a SEAP expression response at least 2× greater than that observed with the vehicle control wells.

human TLR7 = target: T2, human TLR7 (Homo sapiens, UniProt Q9NYK1); assay: TLR Activation and Specificity, HEK-BLUE-hTLR7 SEAP reporter cells; assay type: cell-based; details: 16-20 hours, at least 2× vehicle control, tested 0.01-30 micromolar
T2 construct: host or cells: HEK293 (HEK-BLUE-hTLR7)
T2 sequence (Q9NYK1 27-1049): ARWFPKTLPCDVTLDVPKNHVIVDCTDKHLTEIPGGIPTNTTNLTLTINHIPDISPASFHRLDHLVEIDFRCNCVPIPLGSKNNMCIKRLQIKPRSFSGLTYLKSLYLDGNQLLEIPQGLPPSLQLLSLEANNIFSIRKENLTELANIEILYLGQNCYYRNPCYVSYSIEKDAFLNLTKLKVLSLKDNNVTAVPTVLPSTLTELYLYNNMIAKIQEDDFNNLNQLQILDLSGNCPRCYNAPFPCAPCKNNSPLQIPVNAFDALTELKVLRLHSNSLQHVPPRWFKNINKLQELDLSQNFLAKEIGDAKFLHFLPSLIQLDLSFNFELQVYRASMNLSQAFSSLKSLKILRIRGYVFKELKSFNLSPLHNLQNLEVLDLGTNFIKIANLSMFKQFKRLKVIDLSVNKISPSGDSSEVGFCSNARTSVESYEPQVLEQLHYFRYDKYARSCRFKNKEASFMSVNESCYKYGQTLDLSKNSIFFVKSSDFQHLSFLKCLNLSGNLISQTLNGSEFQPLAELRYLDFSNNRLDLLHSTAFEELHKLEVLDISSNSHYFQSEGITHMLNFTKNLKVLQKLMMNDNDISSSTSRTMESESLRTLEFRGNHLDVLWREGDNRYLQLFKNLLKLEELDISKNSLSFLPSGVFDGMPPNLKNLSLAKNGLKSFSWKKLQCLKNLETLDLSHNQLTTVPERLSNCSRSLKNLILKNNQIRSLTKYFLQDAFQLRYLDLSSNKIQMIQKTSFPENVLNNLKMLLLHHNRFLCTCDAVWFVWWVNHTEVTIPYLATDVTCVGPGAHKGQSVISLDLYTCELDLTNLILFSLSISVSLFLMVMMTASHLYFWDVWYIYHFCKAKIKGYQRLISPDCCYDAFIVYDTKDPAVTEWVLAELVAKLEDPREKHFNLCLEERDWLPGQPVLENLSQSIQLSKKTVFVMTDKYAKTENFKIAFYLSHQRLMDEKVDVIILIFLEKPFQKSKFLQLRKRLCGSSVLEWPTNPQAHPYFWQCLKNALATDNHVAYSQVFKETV
Experimental: as §1, §2, §3, §4

SMILES | MEC to Produce TLR Activation, TLR 8 (human TLR8) [µM] | MEC to Produce TLR Activation, TLR 7 (human TLR7) [µM]
Nc1nc2ccccc2c2c1ncn2CCc1ccccc1 [Comparative Example 1, 1-phenethyl-1H-imidazo[4,5-c]quinolin-4-amine, reference compound] | >30 | 1.1
C[C@H](Cc1ccccc1)n1cnc2c(N)nc3ccccc3c21 [Example 1, 1-[(1R)-1-methyl-2-phenyl-ethyl]imidazo[4,5-c]quinolin-4-amine] | >30 | 0.37
CCCC[C@H](Cc1ccccc1)n1cnc2c(N)nc3ccccc3c21 [Example 2, 1-[(1R)-1-benzylpentyl]imidazo[4,5-c]quinolin-4-amine] | 10 | ≤0.01
COC[C@@H](Cc1ccccc1)n1cnc2c(N)nc3ccccc3c21 [Example 3, 1-[(1R)-1-benzyl-2-methoxy-ethyl]imidazo[4,5-c]quinolin-4-amine] | >30 | 1.1
CCOC[C@@H](Cc1ccccc1)n1cnc2c(N)nc3ccccc3c21 [Example 4, 1-[(1R)-1-benzyl-2-ethoxy-ethyl]imidazo[4,5-c]quinolin-4-amine] | >30 | 1.1
COC[C@H](Cc1ccccc1)n1cnc2c(N)nc3ccccc3c21 [Example 5, 1-[(1S)-1-benzyl-2-methoxy-ethyl]imidazo[4,5-c]quinolin-4-amine] | 10 | ≤0.01
CCOC[C@H](Cc1ccccc1)n1cnc2c(N)nc3ccccc3c21 [Example 6, 1-[(1S)-1-benzyl-2-ethoxy-ethyl]imidazo[4,5-c]quinolin-4-amine] | 3.3 | ≤0.01
CCCCOc1ccc(C[C@@H](CCCC)n2cnc3c(N)nc4ccccc4c32)cc1 [Example 7, 1-[(1R)-1-[(4-butoxyphenyl)methyl]pentyl]imidazo[4,5-c]quinolin-4-amine] | 10 | ≤0.01
